These results are taken from US10022527B2, “Immersion device” (BSN medical GmbH, priority 2013, dated 2018).

The conditions of data set [1]: cited from earlier work.
A short description of data set [2]: Stability test of the NO content of the UV-generated NO-containing buffer solution (chemiluminescence detection). It is filed as physicochemical. Conditions: approximately 150 μM NO in buffered tap water pH 7.0 with 1.45 mM NaNO2 and 10 mM Na ascorbate; over a time span of 20 minutes; not statistically significant. The protocol: (§1) The NO-generating unit contained tap water, buffer salts (8 g/l NaCl+0.2 g/l KCl+1.424 g/l Na2HPO4+0.2 g/l KH2PO4, pH=7.0), 1.45 mM NaNO2 and 10 mM Na ascorbate.
(§2) UV radiation of this solution containing nitrite yielded a solution that contained approximately 150 μM NO. The stability of the generated NO and the occurrence of oxidation products were analyzed on the basis of this solution. Moreover, the effect in terms of perfusion and erythema formation was tested within the scope of its use as a foot bath.
This solution first underwent a stability test, that is to say, it was ascertained how the content of NO changes over a time span of 20 minutes. Every two minutes an aliquot of 10 ml of the bathing solution was pipetted into a flask (volume capacity of 175 ml) through which helium gas was flowing (100 ml/min) and which had already been filled with 40 ml of a PBS solution (pH of 7.4). During the entire procedure, the helium-gas mixtures escaping from the flask were conveyed directly into an NO analysis unit (Chemiluminescence Detector—CLD 822 Sr made by Eco Physics of Duernten, Switzerland) which detected and recorded the NO amounts in ppm (parts per million) that were contained in the gas mixture (in this context, also see Opländer et al. 2010—Nitric Oxide—Bio. Ch. 23: 275-283). […]

Data set [3] in a line: Generation of oxidation products (NO2) in the NO-containing solution. The class given is physicochemical. Conditions: same solution. As to the method:
as §1, §2
This solution first underwent a stability test, that is to say, it was ascertained how the content of NO changes over a time span of 20 minutes. […] During the entire procedure, the helium-gas mixtures escaping from the flask were conveyed directly into an NO analysis unit (Chemiluminescence Detector—CLD 822 Sr made by Eco Physics of Duernten, Switzerland) which detected and recorded the NO amounts in ppm (parts per million) that were contained in the gas mixture (in this context, also see Opländer et al. 2010—Nitric Oxide—Bio. Ch. 23: 275-283).
Using the solution described above, parallel to the above-mentioned NO detection, the amount of nitrogen dioxide radicals, as the most important oxidation product of NO, was detected during the same measurement. […]

For data set [4] the following is noted: cited from earlier work. This is another data set of the same source.

As to `[N]=O` [NO, nitric oxide], the “maximum solubility of NO in aqueous solutions” value in data set [1] was “approximately 2 mM”. Besides, the “drop of NO content” value in data set [2] is “about 10%”. Also, the “concentration of NO2 (oxidation product of NO)” value in data set [3] (occurred only after 10 minutes) is listed as approximately 1.5 ppm. In addition, the “measured NO2 values compared with the initial values” in data set [3] (up to the maximum time value of 20 minutes) was “not significantly higher than the initial values”. In data set [4] (at 37° C.), the “diffusion coefficient of NO relative to that of oxygen or carbon monoxide” value is listed as “approximately 1.4”. The “diffusion path that can be achieved in the tissues” value in data set [4] (calculated on the basis of the diffusion coefficient) was 500 μm.
